Measurements as given in patent publication US11028089B2, “Pyrimido-diazepinone kinase scaffold compounds and methods of treating DCLK1/2-mediated disorders” (DANA-FARBER CANCER INSTITUTE, INC., priority 2016, dated 2021).

Biological target: T1, recombinant DCLK1 (Homo sapiens, UniProt O15075)
T1 construct: N-terminally 6-His tagged human DCLK1 residues G351-H689 was prepared; 6-His (N); made in house; host or cells: E. coli BL21(DE3), co-transformed with lambda phosphatase
T1 sequence (O15075 351-689 isoform O15075-2): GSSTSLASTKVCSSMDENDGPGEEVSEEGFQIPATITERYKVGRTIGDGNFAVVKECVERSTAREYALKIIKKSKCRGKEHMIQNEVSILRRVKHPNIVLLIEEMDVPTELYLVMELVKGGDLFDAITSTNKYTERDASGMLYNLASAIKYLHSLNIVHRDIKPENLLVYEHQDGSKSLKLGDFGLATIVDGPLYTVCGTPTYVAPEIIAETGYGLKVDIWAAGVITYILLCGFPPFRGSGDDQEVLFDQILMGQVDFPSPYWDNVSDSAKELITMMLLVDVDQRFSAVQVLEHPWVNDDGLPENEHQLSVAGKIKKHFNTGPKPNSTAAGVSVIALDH
Assay: DCLK1 mobility shift assay (gel shift assay)
Type: biochemical
Details: 30 nM recombinant DCLK1, 100 μM ATP, 1 μM FAM-labeled peptide substrate, two hours at room temperature, 8-point dose-response
Protocol: The DNA construct consisting of N-terminally 6-His tagged human DCLK1 residues G351-H689 was prepared. Thus prepared plasmid was co-transformed with lambda phosphatase under chloramphenicol selection into BL21(DE3) E. coli cells.
Protein expression was induced from the DCLK1 plasmid with 0.6 mM IPTG and expression was allowed to continue for about 10 hours at a temperature of 18° C. Cells was harvested by centrifugation and resuspended in Lysis buffer with protease inhibitors (1 mM Benzamidine and 1 mM PMSF). Lysis was performed by passing 3 times through a homogenizer. Lysate was centrifuged at 20K for 1 hour at a temperature of 4° C. and the supernatant was filtered through a 0.2 micron membrane. Protein was loaded on nickel (Ni)-NTA resin, washed with Wash buffers, and eluted with 300 mM imidazole buffer. […]
DCLK1 kinase activity was measured in vitro using an electrophoretic mobility shift assay. […] Substrate and product peptides present in each sample were electrophoretically separated and detected using 12-channel LabChip3000 microfluidic capillary electrophoresis instrument (Caliper Life Sciences, Waltham Mass., USA). The change in the relative fluorescence intensities of substrate and product peaks (reflecting enzyme activity) was measured. Capillary electrophoregrams were analyzed using HTS Well Analyzer software (Caliper Life Sciences, Waltham Mass., USA).

Row | Structure (SMILES) | IC50 against DCLK1 compared with the positive control (FIG. 2)
1 | COc1cc(N2CCN(C)CC2)ccc1Nc1ncc2c(n1)N(C)c1ccccc1C(=O)N2CC(F)(F)F [Compound 2, 2-((2-methoxy-4-(4-methylpiperazin-1-yl)phenyl)amino)-11-methyl-5-(2,2,2-trifluoroethyl)-5,11-dihydro-6H-benzo[e]pyrimido[5,4-b][1,4]diazepin-6-one] | substantially decreased from the IC50 value of the positive control
2 | COc1cc(C(=O)NC2CCN(C)CC2)ccc1Nc1ncc2c(n1)N(C)c1ccccc1C(=O)N2CC(F)(F)F [Compound 8, 3-methoxy-4-((11-methyl-6-oxo-5-(2,2,2-trifluoroethyl)-6,11-dihydro-5H-benzo[e]pyrimido[5,4-b][1,4]diazepin-2-yl)amino)-N-(1-methylpiperidin-4-yl)benzamide] | substantially decreased from the IC50 value of the positive control
